One experiment deals with T1, tubulin.
T1 construct: fused on or other part: rhodamine label on part of the tubulin (a fluorescent tracer, not a protein)
Briefly: In vitro microtubule disassembly assay. It is filed as biochemical. The note with it: tubulin and rhodamine-tubulin, 37° C. for 20 minutes, fluorescence microscopy. The method, then: In Vitro Microtubule Disassembly Assay
Reagent A was made by mixing 250 mg/25 mL tubulin and rhodamine-tubulin (60 mg/6 mL), purchased from Cytoskeleton, with 20 mL, 10 mM GTP at 0° C. Reagent B was made by dissolving the compounds (various concentrations, 2 mL in DMSO) in 2×assay buffer (200 mL, 80 mM K PIPES (pH 7.5), 5 mM MgCl2, 1 mM EDTA). Two mL of Reagent A and two mL of Reagent B were mixed in a […] and incubated at 37° C. for 20 minutes. Then, 100 uL of 60% glycerol was added and mixed by gently pipetting the mixture up and down three times. Two uL of the mixture was placed onto a glass slide, covered with a coverslip, and observed by fluorescence microscopy (400×magnification, rhodamine channel).

Experiment [1] relates to Human U937 leukemia cells. Briefly: Growth inhibition of cancer cells (MTS). The experiment is classed as cell-based. Particulars: 490 nm, read-out: IC50 (Cancer cell growth inhibition). The method, then: Growth Inhibition of Cancer Cells
Human U937 leukemia cells were obtained from ATCC. Cells were grown in proliferation media (RPMI-1640 plus 2.38 g/L HEPES, 4.5 g/L glucose, 1.5 g/L NaHCO3, 0.3 g/L Glutamine, 0.11 g Na Pyruvate) plus 20% fetal calf serum. Cells were kept at 37° C., 5% CO2, at a concentration of 0.2-1×10^6 cells/ml. To a 100 μl cell suspension in 96-well plate (1×10^4 cells/well), 20 μl of MTS tetrazolium reagent solution (Promega) in RPMI -1640 medium was added for 2 hours at 37° C. in a 5% CO2 atmosphere. After the incubation period, the reduced formazan product was measured at 490 nm using a plate reader.

Where [2] appears, read: Homo sapiens, U-937, MTS tetrazolium reagent.

Where two headings read alike, the source gives them in different places. Where only a bound is given, the exact number is not on record here.

For the molecule `COc1ccc(CNc2nc(NCc3ccc(OC)cc3)nc(NC3CCCC3)n2)cc1` [Compound S1], the figures for the concentration for half-maximal inhibition (IC50) (in the experiment on tubulin; in experiment [1] (setting [2])) were 8 µM and 10 µM, respectively.

As to `COc1ccc(CNc2nc(NCc3ccc(OC)cc3)nc(NCC3CCCO3)n2)cc1` (stereo not drawn) [Compound S17], the IC50 is < 20 µM with tubulin and 10 µM in experiment [1] (setting [2]).

For the molecule `COc1ccc(CNc2nc(NCc3ccc(OC)cc3)nc(NC3CC3)n2)cc1` [Compound S22], the IC50 in the experiment on tubulin was < 20 µM; in experiment [1] (setting [2]), 25 µM.

Consider `CCC(C)Nc1nc(NCc2ccc(OC)cc2)nc(NCc2ccc(OC)cc2)n1` (stereo not drawn) [Compound S25], for which the IC50 in the experiment on tubulin was < 20 µM; in experiment [1] (setting [2]) it was 25 µM.

For the molecule `CNc1nc(NCc2ccc(OC)cc2)nc(NCc2ccc(OC)cc2)n1` [Compound S33], the IC50 in the experiment with tubulin was < 20 µM; in experiment [1] (setting [2]) it was 18 µM.

For the molecule `COc1ccc(CNc2nc(NCCO)nc(NCc3ccc(OC)cc3)n2)cc1` [Compound S34], the results for the half-maximal inhibitory concentration (IC50) (with tubulin; in experiment [1] (setting [2])) were < 20 µM and 20 µM, respectively.

Turning to `COc1ccc(CNc2nc(NCc3ccc(OC)cc3)nc(NC3CCC3)n2)cc1` [Compound S43], the IC50 with tubulin was < 20 µM; in experiment [1] (setting [2]), 12 µM.

As for `CCNc1nc(NCc2ccc(OC)cc2)nc(NCc2ccc(OC)cc2)n1` [Compound S51], the IC50 with tubulin is < 20 µM; in experiment [1] (setting [2]), 20 µM.

With `COc1ccc(CNc2nc(NCc3ccc(OC)c(OC)c3)nc(NC3CCCCC3)n2)cc1` [Compound S53], the IC50 amounted to 2.5 µM with tubulin and 1 µM in experiment [1] (setting [2]).

As for `COc1ccc(CNc2nc(NCc3ccc(OC)cc3)nc(NC3CCCCC3)n2)cc1` [Compound S77, N-Cyclohexyl-N′,N″-bis-(4-methoxybenzyl)-[1,3,5]Triazine-2,4,6-triamine], the results for the IC50 (in the experiment with tubulin; in experiment [1] (setting [2])) were < 20 µM and 5 µM, respectively.

On to `COc1ccc(CNc2nc(NCc3ccc(OC)cc3)nc(N3CCOCC3)n2)cc1` [Compound S78, N′,N″-Bis-(4-methoxybenzyl)-6-morpholin-4-yl-[1,3,5]Triazine-2,4-diamine], for which the values for the IC50 (in the experiment with tubulin; in experiment [1] (MTS tetrazolium reagent)) were < 20 µM and 12 µM, respectively.

Turning to `COc1ccc(CNc2nc(NCc3ccc(OC)cc3)nc(NC(C)C)n2)cc1` [Compound S84, N-Isopropyl-N′,N″-bis-(4-methoxybenzyl)-[1,3,5]Triazine-2,4,6-triamine], the results for the IC50 (with tubulin; in experiment [1] (setting [2])) were < 20 µM and 9 µM, respectively.

The values above are taken from US7718655B2, “Trisubstituted triazine compounds, and methods for making and using the compounds, which have antitubulin activity” (New York University, priority 2001, dated 2010).
